Results: patent US20210338662A1, “ALPHA-2-ADRENOCEPTOR SUBTYPE C (ALPHA-2C) ANTAGONISTS FOR THE TREATMENT OF SLEEP APNEA” (Bayer Aktiengeseilschaft, priority 2018, published 2021)

System: upper airway collapsibility in anaesthetized, spontaneously breathing pigs
Assay: pig model of obstructive sleep apnea (OSA): upper airway collapsibility under negative pressure
Assay type: in vivo, German Landrace pigs
Conditions: i.v. bolus 1.5 mg/kg then i.v. infusion 0.475 mg/kg/h for four hours
Text: The therapeutic potential of the compounds of formula (I) according to the present invention in sleep apnea has been assessed preclinically in a pig model of obstructive sleep apnea (OSA).
Using negative pressure, it is possible to induce collapse and thus obstruction of the upper respiratory tract in anaesthetized, spontaneously breathing pigs (Wirth K. J. et al., Sleep 36(5) (2013) pp. 699-708).
German Landrace pigs are used for the model. The pigs are anaesthetized and tracheotomized. Two tracheal are inserted into the trachea, one into the rostral part and the other into the caudal part of the trachea. Using a connection piece, the rostral cannula is connected to a tube to the negative pressure device and to the distal tracheal cannula. The distal tracheal cannula is additionally connected to a tube with an open end to atmosphere via a connection piece that served for free tracheal breathing, circumventing the upper airway. By appropriate opening and clamping of those tubes breathing can be switched from nasal breathing to breathing through the caudal tracheal cannula, circumventing the upper airway, and the (isolated) upper airway can be connected to the negative pressure device, causing airflow in the inspiratory direction.
At certain points in time, the collapsibility of the upper respiratory tract is tested by having the pig breathe via the caudal cannula and applying negative pressures of −50, −100 and −150 cm water head (cm H2O) to the upper respiratory tract. This causes the upper respiratory tract to collapse, which manifests itself in an interruption of the airflow and a pressure drop in the tube system. This test is conducted prior to the administration of the test substance and at certain intervals after the administration of the test substance. An appropriately effective test substance can prevent this collapse of the respiratory tract in the inspiratory phase.
FIG. 1: Effect of i.v. bolus injection of 1.5 mg/kg followed by an i.v. infusion of 0.475 mg/kg/h for four hours of the α2-Adrenoceptor subtype C (alpha-2C) antagonists of formula (I) ((S)-1-((2,3-dihydrobenzo[b][1,4]dioxin-2-yl)methyl)-4-(3-(methoxymethyl)pyridin-2-yl)piperazine given at time point 0 min on upper airway collapsibility at different levels of negative pressure. Percentages of pigs with no collapse are given. Mean values.

[1] = all negative pressures of −50, −100 and −150 cm
[2] = time 0 min (time point of administration), mean values

COCc1cccnc1N1CCN(C[C@H]2COc3ccccc3O2)CC1 [(S)-1-((2,3-dihydrobenzo[b][1,4]dioxin-2-yl)methyl)-4-(3-(methoxymethyl)pyridin-2-yl)piperazine]
0%: Percent pigs without collaps −50 cm H2O [2] | Percent pigs without collaps −100 cm H2O [2] | Percent pigs without collaps −150 cm H2O [2]
inhibited upper airway collapsibility: effect on upper airway collapsibility [1]
up to five: duration of inhibition of upper airway collapsibility [1]
100%: Percent pigs without collaps −50 cm H2O (time 10 min) | Percent pigs without collaps −50 cm H2O (time 30 min) | Percent pigs without collaps −50 cm H2O (time 60 min) | Percent pigs without collaps −50 cm H2O (time 120 min) | Percent pigs without collaps −50 cm H2O (time 180 min) | Percent pigs without collaps −50 cm H2O (time 240 min) | Percent pigs without collaps −50 cm H2O (time 300 min) | Percent pigs without collaps −50 cm H2O (time 330 min) | Percent pigs without collaps −100 cm H2O (time 10 min) | Percent pigs without collaps −100 cm H2O (time 30 min) | Percent pigs without collaps −100 cm H2O (time 60 min) | Percent pigs without collaps −100 cm H2O (time 120 min) | Percent pigs without collaps −100 cm H2O (time 180 min) | Percent pigs without collaps −100 cm H2O (time 240 min) | Percent pigs without collaps −100 cm H2O (time 300 min) | Percent pigs without collaps −100 cm H2O (time 330 min) | Percent pigs without collaps −150 cm H2O (time 10 min) | Percent pigs without collaps −150 cm H2O (time 30 min) | Percent pigs without collaps −150 cm H2O (time 60 min) | Percent pigs without collaps −150 cm H2O (time 120 min) | Percent pigs without collaps −150 cm H2O (time 180 min) | Percent pigs without collaps −150 cm H2O (time 240 min) | Percent pigs without collaps −150 cm H2O (time 300 min) | Percent pigs without collaps −150 cm H2O (time 330 min)
